Assay results reported in ChEMBL document CHEMBL1201862, “PubChem BioAssay data set” (2004).
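Tested at 5 concentrations; 48 h exposure; 96-well plates; endpoints linearly interpolated, else capped at highest concentration. The concentration for 50% growth inhibition is given as GI50.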 Activity calls are given as the source filed them. Rule as the data show it: active = GI50 up to about 1.1 µM and inactive = higher.

Tests used:
Assay in all cases: inhibition of tumour cell growth, NCI panel, 48 h
SK-MEL-2 = system: SK-MEL-2
786-0 = system: 786-0
NCI-H226 = system: NCI-H226
A498 = system: A498
Malme-3M = system: Malme-3M
MCF7 = system: MCF7
Hs-578T = system: Hs-578T
HT-29 = system: HT-29
CCRF-CEM = system: CCRF-CEM
TK-10 = system: TK-10
SNB-75 = system: SNB-75
EKVX = system: EKVX
OVCAR-4 = system: OVCAR-4
SF-539 = system: SF-539
SK-MEL-5 = system: SK-MEL-5
LOX IMVI = system: LOX IMVI
ACHN = system: ACHN
MDA-MB-231 = system: MDA-MB-231
SN12C = system: SN12C
COLO 205 = system: COLO 205
HOP-62 = system: HOP-62
SK-MEL-28 = system: SK-MEL-28
SNB-19 = system: SNB-19
SF-295 = system: SF-295
NCI-H23 = system: NCI-H23
NCI-H460 = system: NCI-H460
HOP-92 = system: HOP-92
MOLT-4 = system: MOLT-4
UACC-62 = system: UACC-62
DU-145 = system: DU-145
CAKI-1 = system: CAKI-1
MDA-MB-435 = system: MDA-MB-435
RXF 393 = system: RXF 393
A549 = system: A549
SF-268 = system: SF-268
UACC-257 = system: UACC-257
BT-549 = system: BT-549
RPMI-8226 = system: RPMI-8226
HCT-116 = system: HCT-116
HL-60 = system: HL-60
M14 = system: M14
NCI/ADR-RES = system: NCI/ADR-RES
SW-620 = system: SW-620
MDA-N = system: MDA-N
IGROV-1 = system: IGROV-1
T47D = system: T47D
PC-3 = system: PC-3
K562 = system: K562
HCC 2998 = system: HCC 2998
NCI-H522 = system: NCI-H522
SR = system: SR
OVCAR-8 = system: OVCAR-8
U-251 = system: U-251
HCT-15 = system: HCT-15
KM12 = system: KM12
OVCAR-5 = system: OVCAR-5
SK-OV-3 = system: SK-OV-3
OVCAR-3 = system: OVCAR-3

Compound: OC(CC(O)(C(F)(F)Cl)C(F)(F)Cl)c1ccccc1 (stereo unspecified)
- GI50 (SK-MEL-2): > 10 µM (inactive)
- GI50 (786-0): < 0.001 µM (active)
- GI50 (NCI-H226): > 10 µM (inactive)
- GI50 (A498): 0.0107 µM (active)
- GI50 (Malme-3M): > 10 µM (inactive)
- GI50 (MCF7): > 10 µM (inactive)
- GI50 (Hs-578T): > 10 µM (inactive)
- GI50 (HT-29): > 10 µM (inactive)
- GI50 (CCRF-CEM): > 10 µM (inactive)
- GI50 (TK-10): > 10 µM (inactive)
- GI50 (SNB-75): > 10 µM (inactive)
- GI50 (EKVX): > 10 µM (inactive)
- GI50 (OVCAR-4): > 10 µM (inactive)
- GI50 (SF-539): > 10 µM (inactive)
- GI50 (SK-MEL-5): 0.00809 µM (active)
- GI50 (LOX IMVI): > 10 µM (inactive)
- GI50 (ACHN): > 10 µM (inactive)
- GI50 (MDA-MB-231): > 10 µM (inactive)
- GI50 (SN12C): > 10 µM (inactive)
- GI50 (COLO 205): > 10 µM (inactive)
- GI50 (HOP-62): > 10 µM (inactive)
- GI50 (SK-MEL-28): > 10 µM (inactive)
- GI50 (SNB-19): > 10 µM (inactive)
- GI50 (SF-295): > 10 µM (inactive)
- GI50 (NCI-H23): > 10 µM (inactive)
- GI50 (NCI-H460): > 10 µM (inactive)
- GI50 (HOP-92): > 10 µM (inactive)
- GI50 (MOLT-4): > 10 µM (inactive)
- GI50 (UACC-62): > 10 µM (inactive)
- GI50 (DU-145): > 10 µM (inactive)
- GI50 (CAKI-1): > 10 µM (inactive)
- GI50 (MDA-MB-435): < 0.001 µM (active)
- GI50 (RXF 393): > 10 µM (inactive)
- GI50 (A549): > 10 µM (inactive)
- GI50 (SF-268): > 10 µM (inactive)
- GI50 (UACC-257): > 10 µM (inactive)
- GI50 (BT-549): > 10 µM (inactive)
- GI50 (RPMI-8226): > 10 µM (inactive)
- GI50 (HCT-116): > 10 µM (inactive)
- GI50 (HL-60): > 10 µM (inactive)
- GI50 (M14): < 0.001 µM (active)
- GI50 (NCI/ADR-RES): > 10 µM (inactive)
- GI50 (SW-620): > 10 µM (inactive)
- GI50 (MDA-N): > 10 µM (inactive)
- GI50 (IGROV-1): 0.0258 µM (active)
- GI50 (T47D): > 10 µM (inactive)
- GI50 (PC-3): > 10 µM (inactive)
- GI50 (K562): > 10 µM (inactive)
- GI50 (HCC 2998): > 10 µM (inactive)
- GI50 (NCI-H522): > 10 µM (inactive)
- GI50 (SR): > 10 µM (inactive)
- GI50 (OVCAR-8): > 10 µM (inactive)
- GI50 (U-251): > 10 µM (inactive)
- GI50 (HCT-15): > 10 µM
- GI50 (KM12): > 10 µM (inactive)
- GI50 (OVCAR-5): > 10 µM (inactive)
- GI50 (SK-OV-3): > 10 µM (inactive)
- GI50 (OVCAR-3): > 10 µM (inactive)

Compound: Nc1c2cc3ccc2nc2ccc(cc12)OCCOCCOCCOCCOCCOCCO3
- GI50 (SK-MEL-2): > 10 µM (inactive)
- GI50 (786-0): > 10 µM (inactive)
- GI50 (NCI-H226): > 10 µM (inactive)
- GI50 (A498): > 10 µM (inactive)
- GI50 (Malme-3M): > 10 µM (inactive)
- GI50 (MCF7): > 10 µM (inactive)
- GI50 (Hs-578T): > 10 µM (inactive)
- GI50 (HT-29): > 10 µM (inactive)
- GI50 (CCRF-CEM): > 10 µM (inactive)
- GI50 (TK-10): > 10 µM (inactive)
- GI50 (SNB-75): > 10 µM (inactive)
- GI50 (EKVX): > 10 µM (inactive)
- GI50 (OVCAR-4): > 10 µM (inactive)
- GI50 (SF-539): > 10 µM (inactive)
- GI50 (SK-MEL-5): > 10 µM (inactive)
- GI50 (LOX IMVI): > 10 µM (inactive)
- GI50 (ACHN): > 10 µM (inactive)
- GI50 (MDA-MB-231): > 10 µM (inactive)
- GI50 (SN12C): > 10 µM (inactive)
- GI50 (COLO 205): > 10 µM (inactive)
- GI50 (HOP-62): > 10 µM (inactive)
- GI50 (SK-MEL-28): > 10 µM (inactive)
- GI50 (SNB-19): > 10 µM (inactive)
- GI50 (SF-295): > 10 µM (inactive)
- GI50 (NCI-H23): > 10 µM (inactive)
- GI50 (NCI-H460): > 10 µM (inactive)
- GI50 (HOP-92): > 10 µM (inactive)
- GI50 (MOLT-4): > 10 µM (inactive)
- GI50 (UACC-62): > 10 µM (inactive)
- GI50 (DU-145): > 10 µM (inactive)
- GI50 (CAKI-1): > 10 µM (inactive)
- GI50 (MDA-MB-435): > 10 µM (inactive)
- GI50 (RXF 393): > 10 µM (inactive)
- GI50 (A549): > 10 µM (inactive)
- GI50 (SF-268): > 10 µM (inactive)
- GI50 (UACC-257): > 10 µM (inactive)
- GI50 (BT-549): > 10 µM (inactive)
- GI50 (RPMI-8226): > 10 µM (inactive)
- GI50 (HCT-116): > 10 µM (inactive)
- GI50 (HL-60): > 10 µM (inactive)
- GI50 (M14): > 10 µM (inactive)
- GI50 (NCI/ADR-RES): > 10 µM (inactive)
- GI50 (SW-620): > 10 µM (inactive)
- GI50 (MDA-N): > 10 µM (inactive)
- GI50 (IGROV-1): > 10 µM (inactive)
- GI50 (T47D): > 10 µM (inactive)
- GI50 (PC-3): > 10 µM (inactive)
- GI50 (K562): > 10 µM (inactive)
- GI50 (HCC 2998): > 10 µM (inactive)
- GI50 (NCI-H522): > 10 µM (inactive)
- GI50 (SR): > 10 µM (inactive)
- GI50 (OVCAR-8): > 10 µM (inactive)
- GI50 (U-251): > 10 µM (inactive)
- GI50 (HCT-15): > 10 µM
- GI50 (KM12): > 10 µM (inactive)
- GI50 (OVCAR-5): > 10 µM (inactive)
- GI50 (SK-OV-3): > 10 µM (inactive)
- GI50 (OVCAR-3): > 10 µM (inactive)
